Each block holds one molecule with its values, some of them ahead of it. Active and inactive are the calls of the source. The rule behind the calls is not given here.
What was measured:
[1] = target: T1, Class 1 histone deacetylase (Homo sapiens, UniProt Q13547+O15379+Q92769+Q9BY41); experiment: (§1) Inhibition of class 1 HDAC in human CAL27 cells assessed as potentiation of cisplatin-induced cytotoxicity by measuring combination index at 5 uM in presence of […] cisplatin by MTT assay based Chou-Talalay analysis; format: cell-based; conditions: CAL-27
[2] = target: T2, Protein deacetylase HDAC6 (Homo sapiens) (UniProt Q9UBN7); experiment: Inhibition of HDAC6 in human Cal27CisR cells assessed as acetylation of alpha-tubulin at 5 uM measured after 24 hrs by immunoblot analysis; format: cell-based
T2 sequence (whole entry): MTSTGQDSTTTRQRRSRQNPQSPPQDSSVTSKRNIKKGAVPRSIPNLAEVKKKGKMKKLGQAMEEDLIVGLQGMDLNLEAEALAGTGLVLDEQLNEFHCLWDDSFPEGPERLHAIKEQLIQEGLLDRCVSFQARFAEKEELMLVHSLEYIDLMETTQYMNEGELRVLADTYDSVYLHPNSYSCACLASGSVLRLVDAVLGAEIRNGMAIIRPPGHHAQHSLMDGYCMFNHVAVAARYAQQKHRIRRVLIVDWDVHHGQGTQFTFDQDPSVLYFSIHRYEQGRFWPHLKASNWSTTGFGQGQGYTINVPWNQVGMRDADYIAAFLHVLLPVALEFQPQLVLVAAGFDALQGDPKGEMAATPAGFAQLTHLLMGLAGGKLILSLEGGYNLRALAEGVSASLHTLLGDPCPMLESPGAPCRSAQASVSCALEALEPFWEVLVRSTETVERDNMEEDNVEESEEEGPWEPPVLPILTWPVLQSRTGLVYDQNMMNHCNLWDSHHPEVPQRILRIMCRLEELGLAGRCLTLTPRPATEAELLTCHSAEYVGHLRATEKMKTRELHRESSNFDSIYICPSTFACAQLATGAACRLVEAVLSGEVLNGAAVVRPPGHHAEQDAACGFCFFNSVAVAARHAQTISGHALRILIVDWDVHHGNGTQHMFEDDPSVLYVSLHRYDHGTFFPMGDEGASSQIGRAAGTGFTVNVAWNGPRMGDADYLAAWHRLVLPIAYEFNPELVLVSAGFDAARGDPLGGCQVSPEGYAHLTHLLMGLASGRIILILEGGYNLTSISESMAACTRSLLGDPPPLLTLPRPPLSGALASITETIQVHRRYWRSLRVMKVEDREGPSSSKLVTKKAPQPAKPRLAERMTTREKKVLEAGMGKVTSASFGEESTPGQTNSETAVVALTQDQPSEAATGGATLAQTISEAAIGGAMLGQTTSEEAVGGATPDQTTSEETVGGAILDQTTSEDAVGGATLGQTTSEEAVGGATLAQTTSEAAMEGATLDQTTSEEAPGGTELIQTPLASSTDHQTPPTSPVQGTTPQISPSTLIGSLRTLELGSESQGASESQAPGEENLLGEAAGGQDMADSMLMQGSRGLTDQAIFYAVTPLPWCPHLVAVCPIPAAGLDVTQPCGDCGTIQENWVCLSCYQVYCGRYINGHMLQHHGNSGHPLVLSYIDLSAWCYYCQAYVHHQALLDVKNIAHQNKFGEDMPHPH

[3] = target: T1, Class 1 histone deacetylase; experiment: Inhibition of class 1 HDAC in human CAL27 cells assessed as potentiation of cisplatin-induced apoptosis assessed as increase in caspase-3/7 activation at 5 uM preincubated for 48 hrs followed by cisplatin addition and measured after 24 hrs in presence of pan caspase inhibitor QVD by CellEvent caspase 3/7 green detection reagent/Hoechst 33342 staining based imaging analysis; format: cell-based; conditions: CAL-27
[4] = target: T1, Class 1 histone deacetylase; experiment: as §1; format: cell-based; conditions: CAL-27; remark: listed apart in the source
[5] = target: T1, Class 1 histone deacetylase; experiment: Inhibition of class 1 HDAC in human Cal27CisR cells assessed as potentiation of cisplatin-induced cytotoxicity by measuring cisplatin IC50 at 5 uM preincubated for 48 hrs followed by cisplatin addition and measured after 72 hrs by MTT assay (reference value: 63.2 uM); format: cell-based
[6] = target: T1, Class 1 histone deacetylase; experiment: Inhibition of class 1 HDAC in human Cal27CisR cells assessed as potentiation of cisplatin-induced cytotoxicity by measuring combination index at 5 uM in presence of 100 uM cisplatin by MTT assay based Chou-Talalay analysis; format: cell-based
CAL-27 [7] = experiment: Induction of apoptosis in human CAL27 cells assessed as accumulation at sub-G1 phase at 5 uM after 48 hrs by propidium iodide staining based flow cytometry; format: functional, cell-based
Homo sapiens = species: Homo sapiens; experiment: Induction of apoptosis in human Cal27CisR cells assessed as accumulation at sub-G1 phase at 5 uM after 48 hrs by propidium iodide staining based flow cytometry; format: functional, cell-based
[8] = target: T1, Class 1 histone deacetylase
Description: Inhibition of class 1 HDAC in human Cal27CisR cells assessed as potentiation of cisplatin-induced cytotoxicity by measuring combination index at 0.25 uM in presence of 100 uM cisplatin by MTT assay based Chou-Talalay analysis

[9] = target: T1, Class 1 histone deacetylase; conditions: CAL-27
Description: Inhibition of class 1 HDAC in human CAL27 cells assessed as potentiation of cisplatin-induced cytotoxicity by measuring combination index at 0.1 uM in presence of 1 uM cisplatin by MTT assay based Chou-Talalay analysis

CAL-27 [10] = experiment: Induction of apoptosis in human CAL27 cells assessed as accumulation at sub-G1 phase at 0.5 uM after 48 hrs by propidium iodide staining based flow cytometry relative to control; format: functional
CAL-27 [11] = experiment: Potency index, ratio of vorinostat IC50 to test compound IC50 for cytotoxicity against human CAL27 cells; format: functional
[12] = target: T1, Class 1 histone deacetylase; format: cell-based; conditions: cal-27
[13] = target: T1, Class 1 histone deacetylase; conditions: CAL-27; remark: listed apart in the source
Description: Inhibition of class 1 HDAC in human CAL27 cells assessed as potentiation of cisplatin-induced cytotoxicity by measuring combination index at 0.1 uM in presence of 0.32 uM cisplatin by MTT assay based Chou-Talalay analysis

[14] = target: T1, Class 1 histone deacetylase; remark: listed apart in the source
Description: Inhibition of class 1 HDAC in human Cal27CisR cells assessed as potentiation of cisplatin-induced cytotoxicity by measuring combination index at 0.10 uM in presence of 100 uM cisplatin by MTT assay based Chou-Talalay analysis

[15] = target: T1, Class 1 histone deacetylase; remark: listed apart in the source
Histone deacetylase 2 = Histone deacetylase 2 (Homo sapiens, UniProt Q92769); experiment: Inhibition of recombinant human full length C-terminal FLAG-tagged HDAC2 expressed in baculovirus infected Sf9 insect cells at 3.33 uM using Boc-Lys(epsilon-acetyl)-AMC as substrate incubated for 90 mins by fluorescence assay relative to control
[16] = target: T1, Class 1 histone deacetylase; experiment: Inhibition of class 1 HDAC in human CAL27 cells assessed as potentiation of cisplatin-induced cytotoxicity by measuring cisplatin IC50 at […] preincubated for 48 hrs followed by cisplatin addition and measured after 72 hrs by MTT assay (reference value: 9.79 uM); format: cell-based; conditions: cal-27
CAL-27 [17] = experiment: Induction of apoptosis in human CAL27 cells assessed as caspase-3/7 activation at […] measured after 48 hrs by CellEvent caspase 3/7 green detection reagent/Hoechst 33342 staining based imaging analysis relative to control; format: functional
[18] = target: T2, Protein deacetylase HDAC6 (Homo sapiens); experiment: Inhibition of HDAC6 in human Cal27CisR cells assessed as acetylation of alpha-tubulin at […] measured after 24 hrs by immunoblot analysis; format: cell-based
[19] = Induction of apoptosis in human Cal27CisR cells assessed as accumulation at sub-G1 phase at […] after 48 hrs by propidium iodide staining based flow cytometry relative to control; format: functional

T1 sequence (O15379 whole entry, looked up): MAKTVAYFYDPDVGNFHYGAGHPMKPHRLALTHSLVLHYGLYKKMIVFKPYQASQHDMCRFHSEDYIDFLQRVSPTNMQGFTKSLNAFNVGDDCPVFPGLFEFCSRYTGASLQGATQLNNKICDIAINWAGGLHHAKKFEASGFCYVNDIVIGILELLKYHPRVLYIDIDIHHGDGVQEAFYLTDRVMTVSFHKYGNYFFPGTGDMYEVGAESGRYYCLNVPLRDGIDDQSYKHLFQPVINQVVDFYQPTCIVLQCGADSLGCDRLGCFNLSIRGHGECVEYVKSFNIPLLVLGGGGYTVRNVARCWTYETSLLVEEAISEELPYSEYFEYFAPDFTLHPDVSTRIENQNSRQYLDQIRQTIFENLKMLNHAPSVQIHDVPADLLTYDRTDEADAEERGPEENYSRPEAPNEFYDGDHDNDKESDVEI
T1 sequence (Q13547 whole entry, looked up): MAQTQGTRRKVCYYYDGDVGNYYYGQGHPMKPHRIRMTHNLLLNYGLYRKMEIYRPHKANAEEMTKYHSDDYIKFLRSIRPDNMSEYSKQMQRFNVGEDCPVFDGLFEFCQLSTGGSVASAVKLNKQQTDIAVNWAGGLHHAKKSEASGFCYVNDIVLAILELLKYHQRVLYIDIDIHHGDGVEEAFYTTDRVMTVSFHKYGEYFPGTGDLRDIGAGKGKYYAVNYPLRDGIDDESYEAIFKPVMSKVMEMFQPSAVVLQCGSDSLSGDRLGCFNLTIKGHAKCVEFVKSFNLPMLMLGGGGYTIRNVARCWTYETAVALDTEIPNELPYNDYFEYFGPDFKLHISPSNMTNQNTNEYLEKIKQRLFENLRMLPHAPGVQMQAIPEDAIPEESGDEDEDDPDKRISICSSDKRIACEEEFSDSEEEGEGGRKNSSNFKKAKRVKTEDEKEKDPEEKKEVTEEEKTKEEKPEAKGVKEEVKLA
T1 sequence (Q92769 whole entry, looked up): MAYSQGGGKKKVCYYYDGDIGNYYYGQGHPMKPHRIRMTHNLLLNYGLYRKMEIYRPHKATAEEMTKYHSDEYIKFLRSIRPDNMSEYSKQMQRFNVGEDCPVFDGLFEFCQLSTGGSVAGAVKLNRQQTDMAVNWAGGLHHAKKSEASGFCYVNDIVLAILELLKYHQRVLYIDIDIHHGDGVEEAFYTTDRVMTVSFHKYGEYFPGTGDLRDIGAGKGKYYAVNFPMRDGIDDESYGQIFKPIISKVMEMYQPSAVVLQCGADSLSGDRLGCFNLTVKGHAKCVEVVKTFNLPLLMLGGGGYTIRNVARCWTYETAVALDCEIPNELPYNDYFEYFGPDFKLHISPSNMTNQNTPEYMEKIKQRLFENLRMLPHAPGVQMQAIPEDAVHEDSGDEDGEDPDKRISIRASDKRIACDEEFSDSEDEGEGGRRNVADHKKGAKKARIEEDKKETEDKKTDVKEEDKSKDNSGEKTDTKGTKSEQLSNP
T1 sequence (Q9BY41 whole entry, looked up): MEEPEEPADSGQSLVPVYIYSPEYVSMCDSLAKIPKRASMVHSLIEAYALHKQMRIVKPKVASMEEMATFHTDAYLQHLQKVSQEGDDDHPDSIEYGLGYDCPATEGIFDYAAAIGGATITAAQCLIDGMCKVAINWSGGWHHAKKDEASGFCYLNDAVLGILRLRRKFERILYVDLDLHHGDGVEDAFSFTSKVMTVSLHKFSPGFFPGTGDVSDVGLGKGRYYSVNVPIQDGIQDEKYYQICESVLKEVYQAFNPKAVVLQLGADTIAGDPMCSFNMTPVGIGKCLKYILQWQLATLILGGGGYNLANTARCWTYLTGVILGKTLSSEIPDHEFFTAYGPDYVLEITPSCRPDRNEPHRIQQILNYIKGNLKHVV
Chain of Histone deacetylase 2 (Q92769 whole entry): as the sequence (Q92769 whole entry, looked up) above

inhibition [2]: inactive
inhibition [3]: inactive
Structure (SMILES): Cc1cc(C)cc(C(=O)N(CCCCCC(=O)Nc2cc(-c3ccccc3)ccc2N)CC(=O)NCc2ccccc2)c1
CI [1]: 0.1
CI [4]: < 0.2
IC50 [5]: 15700 nM
CI [6]: 0.05
Activity (CAL-27 [7]): inactive
Activity (Homo sapiens): inactive

CI [8]: 0.03
CI [9]: 0.91
IC50 [12]: 1260 nM
CI [13]: < 0.2
CI [14]: 0.07
CI [15]: < 0.2
Structure (SMILES): CN(C)c1ccc(C(=O)N(CC(=O)NCc2ccccc2)Cc2ccc(C(=O)Nc3ccccc3N)cc2)cc1
Activity (CAL-27 [10]): 9.42%
Ratio IC50 (CAL-27 [11]): 1.7

Structure (SMILES): Cc1cc(C)cc(C(=O)N(CC(=O)NCc2ccccc2)Cc2ccc(C(=O)Nc3cc(-c4ccccc4)ccc3N)cc2)c1
inhibition (Histone deacetylase 2): 34%
IC50 [16]: 1860 nM
Activity (CAL-27 [17]): 9.47%
inhibition [18]: inactive
Activity [19]: 7.45%

Source: ChEMBL document CHEMBL4334526, “Synthesis of Peptoid-Based Class I-Selective Histone Deacetylase Inhibitors with Chemosensitizing Properties” (J Med Chem, 2019)
